Test results taken from PubChem BioAssay (NCI).
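Following 48 hours of exposure in 96-well plates, responses at five concentrations were used to interpolate endpoints linearly. GI50 = concentration required for 50% inhibition of growth. TGI is the concentration that stops growth completely.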

What was measured:
Experiment in all cases: NCI tumour cell line growth inhibition, 48 h; in the data active means GI50 below about 0.43 µM; inactive means the rest
SF-268 CNS = tested on: SF-268 CNS
OVCAR-4 ovarian = tested on: OVCAR-4 ovarian
HCT-116 colon = tested on: HCT-116 colon
K-562 leukemia = tested on: K-562 leukemia
HOP-92 NSCLC = tested on: HOP-92 NSCLC
CAKI-1 renal = tested on: CAKI-1 renal
MCF7 breast = tested on: MCF7 breast
MDA-MB-231 breast = tested on: MDA-MB-231 breast
HCT-15 colon = tested on: HCT-15 colon
OVCAR-3 ovarian = tested on: OVCAR-3 ovarian
SK-MEL-2 melanoma = tested on: SK-MEL-2 melanoma
M14 melanoma = tested on: M14 melanoma
EKVX NSCLC = tested on: EKVX NSCLC
IGROV1 ovarian = tested on: IGROV1 ovarian
MOLT-4 leukemia = tested on: MOLT-4 leukemia
NCI-H226 lung = tested on: NCI-H226 lung
SN12C renal = tested on: SN12C renal
KM12 colon = tested on: KM12 colon
SK-MEL-5 melanoma = tested on: SK-MEL-5 melanoma
NCI-H522 lung = tested on: NCI-H522 lung
CCRF-CEM leukemia = tested on: CCRF-CEM leukemia
TK-10 renal = tested on: TK-10 renal
ACHN renal = tested on: ACHN renal
NCI/ADR-RES ovarian = tested on: NCI/ADR-RES ovarian
MALME-3M melanoma = tested on: MALME-3M melanoma
RPMI-8226 leukemia = tested on: RPMI-8226 leukemia
BT-549 breast = tested on: BT-549 breast
SK-MEL-28 melanoma = tested on: SK-MEL-28 melanoma
HOP-62 NSCLC = tested on: HOP-62 NSCLC
COLO 205 colon = tested on: COLO 205 colon
LOX IMVI melanoma = tested on: LOX IMVI melanoma
SF-295 CNS = tested on: SF-295 CNS
OVCAR-8 ovarian = tested on: OVCAR-8 ovarian
MDA-MB-435 = tested on: MDA-MB-435
SK-OV-3 ovarian = tested on: SK-OV-3 ovarian
SF-539 CNS = tested on: SF-539 CNS
SNB-19 CNS = tested on: SNB-19 CNS
UO-31 renal = tested on: UO-31 renal
786-0 renal = tested on: 786-0 renal
SNB-75 CNS = tested on: SNB-75 CNS
HT29 colon = tested on: HT29 colon
NCI-H23 lung = tested on: NCI-H23 lung
OVCAR-5 ovarian = tested on: OVCAR-5 ovarian
PC-3 prostate = tested on: PC-3 prostate
A498 renal = tested on: A498 renal
HS 578T breast = tested on: HS 578T breast
DU-145 prostate = tested on: DU-145 prostate
U251 CNS = tested on: U251 CNS
NCI-H460 lung = tested on: NCI-H460 lung
UACC-62 melanoma = tested on: UACC-62 melanoma
UACC-257 melanoma = tested on: UACC-257 melanoma
RXF 393 renal = tested on: RXF 393 renal
HL-60(TB) leukemia = tested on: HL-60(TB) leukemia
SW-620 colon = tested on: SW-620 colon
HCC-2998 colon = tested on: HCC-2998 colon
A549 NSCLC = tested on: A549 NSCLC

CC[C@H](C)[C@H](NC(=O)C12CC(NC)(C1)C2)C(=O)N(C)[C@H](C[C@@H](OC(C)=O)c1nc(C(=O)N[C@@H](Cc2ccccc2)C[C@H](C)C(=O)OC)cs1)C(C)C
> 8000 nM: TGI (A498 renal)
1330 nM: TGI (HT29 colon)
1020 nM: TGI (BT-549 breast)
250 nM: TGI (MDA-MB-435)
> 25000 nM: TGI (SF-268 CNS) | TGI (OVCAR-4 ovarian) | TGI (K-562 leukemia) | TGI (HOP-92 NSCLC) | TGI (CAKI-1 renal) | TGI (MCF7 breast) | TGI (MDA-MB-231 breast) | TGI (EKVX NSCLC) | TGI (IGROV1 ovarian) | TGI (MOLT-4 leukemia) | TGI (NCI-H226 lung) | TGI (SN12C renal) | TGI (TK-10 renal) | TGI (ACHN renal) | TGI (NCI/ADR-RES ovarian) | TGI (MALME-3M melanoma) | TGI (SK-MEL-28 melanoma) | TGI (HOP-62 NSCLC) | TGI (LOX IMVI melanoma) | TGI (OVCAR-8 ovarian) | TGI (SK-OV-3 ovarian) | TGI (SNB-19 CNS) | TGI (UO-31 renal) | TGI (SNB-75 CNS) | TGI (NCI-H23 lung) | TGI (OVCAR-5 ovarian) | TGI (PC-3 prostate) | TGI (U251 CNS) | TGI (NCI-H460 lung) | TGI (UACC-62 melanoma) | TGI (UACC-257 melanoma) | TGI (SW-620 colon) | TGI (HCC-2998 colon) | TGI (A549 NSCLC)
> 17100 nM: TGI (HCT-15 colon)
> 17600 nM: TGI (KM12 colon)
> 11700 nM: TGI (786-0 renal)
368 nM: TGI (NCI-H522 lung)
1560 nM: TGI (COLO 205 colon)
3020 nM: TGI (DU-145 prostate)
2170 nM: TGI (SF-295 CNS)
999 nM: TGI (SK-MEL-5 melanoma)
1220 nM: TGI (RXF 393 renal)
active: GI50 (SF-268 CNS) 355 nM | GI50 (HCT-116 colon) 96.9 nM | GI50 (K-562 leukemia) 53.4 nM | GI50 (MCF7 breast) 43.9 nM | GI50 (OVCAR-3 ovarian) 55 nM | GI50 (SK-MEL-2 melanoma) 171 nM | GI50 (M14 melanoma) 237 nM | GI50 (IGROV1 ovarian) 181 nM | GI50 (KM12 colon) 179 nM | GI50 (SK-MEL-5 melanoma) 103 nM | GI50 (NCI-H522 lung) 34.6 nM | GI50 (CCRF-CEM leukemia) 221 nM | GI50 (MALME-3M melanoma) 329 nM | GI50 (RPMI-8226 leukemia) 80.6 nM | GI50 (BT-549 breast) 97.2 nM | GI50 (COLO 205 colon) 189 nM | GI50 (LOX IMVI melanoma) 209 nM | GI50 (SF-295 CNS) 401 nM | GI50 (MDA-MB-435) 29.7 nM | GI50 (SF-539 CNS) 421 nM | GI50 (786-0 renal) 237 nM | GI50 (SNB-75 CNS) 92.8 nM | GI50 (HT29 colon) 138 nM | GI50 (PC-3 prostate) 208 nM | GI50 (HS 578T breast) 234 nM | GI50 (DU-145 prostate) 199 nM | GI50 (NCI-H460 lung) 282 nM | GI50 (UACC-62 melanoma) 84.2 nM | GI50 (RXF 393 renal) 160 nM | GI50 (HL-60(TB) leukemia) 55.7 nM | GI50 (SW-620 colon) 159 nM | GI50 (HCC-2998 colon) 349 nM
511 nM: TGI (OVCAR-3 ovarian)
inactive: GI50 (OVCAR-4 ovarian) 3830 nM | GI50 (HOP-92 NSCLC) 7170 nM | GI50 (CAKI-1 renal) 6420 nM | GI50 (MDA-MB-231 breast) 576 nM | GI50 (HCT-15 colon) 1110 nM | GI50 (EKVX NSCLC) 2130 nM | GI50 (MOLT-4 leukemia) 649 nM | GI50 (NCI-H226 lung) 1710 nM | GI50 (SN12C renal) 585 nM | GI50 (TK-10 renal) 3700 nM | GI50 (ACHN renal) 1390 nM | GI50 (NCI/ADR-RES ovarian) > 25000 nM | GI50 (SK-MEL-28 melanoma) 2130 nM | GI50 (HOP-62 NSCLC) 542 nM | GI50 (OVCAR-8 ovarian) 633 nM | GI50 (SK-OV-3 ovarian) 786 nM | GI50 (SNB-19 CNS) 615 nM | GI50 (UO-31 renal) 1940 nM | GI50 (NCI-H23 lung) 790 nM | GI50 (OVCAR-5 ovarian) 1520 nM | GI50 (A498 renal) 525 nM | GI50 (U251 CNS) 434 nM | GI50 (UACC-257 melanoma) 19800 nM | GI50 (A549 NSCLC) 1110 nM
5830 nM: TGI (RPMI-8226 leukemia)
163 nM: TGI (HL-60(TB) leukemia)
2410 nM: TGI (CCRF-CEM leukemia)
15100 nM: TGI (HS 578T breast)
1500 nM: TGI (SF-539 CNS)
